Experimental data as given in PubChem BioAssay (NCI).
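Growth conditions: 96-well plates. Treatment: test compound, 48 hours, 5 concentrations. Analysis: linear interpolation between bracketing concentrations; unreached endpoints set to highest concentration. Abbreviation: GI50, concentration required for 50% inhibition of growth. TGI denotes the concentration required for complete inhibition of growth.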

Experiments:
Experiment in all cases: DTP human tumour cell line panel, 48 h
[1] = tested on: SK-MEL-5 melanoma
[2] = tested on: SN12C renal
[3] = tested on: NCI-H23 lung
[4] = tested on: MALME-3M melanoma
[5] = tested on: BT-549 breast
[6] = tested on: HOP-62 NSCLC
[7] = tested on: HS 578T breast
[8] = tested on: IGROV1 ovarian

COc1cc2cc(Oc3ccc(NC(=O)c4cccc(C(F)(F)F)c4)cc3)c(C)nc2cc1OC
GI50 [1]: 2.45 µM
TGI [1]: 8.84 µM
GI50 [2]: 6.39 µM
TGI [2]: > 100 µM
GI50 [3]: 4.11 µM
TGI [3]: > 100 µM
GI50 [4]: > 100 µM
TGI [4]: > 100 µM
GI50 [5]: 3.31 µM
TGI [5]: > 100 µM
GI50 [6]: 21.6 µM
TGI [6]: > 100 µM
GI50 [7]: 2.97 µM
TGI [7]: 58.4 µM
GI50 [8]: 6.78 µM
TGI [8]: > 100 µM

N/C(=N\OC(=O)c1ccccc1)C(C(=O)NOC(=O)c1ccccc1)C1CCCCC1 (stereo not drawn)
GI50 [1]: 10.3 µM
TGI [1]: 22.8 µM
GI50 [2]: 13.4 µM
TGI [2]: 69.4 µM
GI50 [3]: 9.28 µM
TGI [3]: 24.1 µM
GI50 [4]: 10.1 µM
TGI [4]: 27.5 µM
GI50 [5]: 3.98 µM
TGI [5]: 15.1 µM
GI50 [6]: 2.87 µM
TGI [6]: 9.09 µM
GI50 [7]: 2.57 µM
TGI [7]: 7.93 µM
GI50 [8]: 1.66 µM
TGI [8]: 3.92 µM

CC1=C(C(=O)NC2CCCCC2)CC(C(=O)NC2CCCCC2)=C(C)N1
TGI [1]: > 100 µM
TGI [2]: > 100 µM
TGI [3]: > 100 µM
TGI [4]: > 100 µM
TGI [5]: > 100 µM
TGI [6]: > 100 µM
TGI [7]: > 100 µM
TGI [8]: > 100 µM

CC1(C)N=C(N)N=C(N)N1c1ccc(CCc2ccccc2)c(Cl)c1
GI50 [1]: 0.124 µM
TGI [1]: 1.33 µM
GI50 [2]: 0.0883 µM
TGI [2]: 13 µM
GI50 [3]: 0.0791 µM
TGI [3]: 15 µM
GI50 [4]: 0.728 µM
TGI [4]: 19 µM
GI50 [5]: 1.11 µM
TGI [5]: 12.5 µM
GI50 [6]: 0.268 µM
TGI [6]: 12.4 µM
GI50 [7]: 3.7 µM
TGI [7]: 27.2 µM
GI50 [8]: 0.0668 µM
TGI [8]: 15.7 µM

COC(=O)C1=C(OC(=O)c2ccc(Cl)cc2)C(C(=O)OC)[C@@]2(O)[C@@H](C(=O)OC)C(c3ccccc3C(F)(F)F)C[C@@H]1[C@@H]2C(=O)OC (stereo partly drawn)
GI50 [1]: 3.46 µM
TGI [1]: 12.4 µM
GI50 [2]: 2.08 µM
TGI [2]: 6.66 µM
GI50 [3]: 3.47 µM
TGI [3]: 16.8 µM
GI50 [5]: 4.16 µM
TGI [5]: 63.6 µM
GI50 [6]: 9.24 µM
TGI [6]: > 100 µM
GI50 [7]: 3.96 µM
TGI [7]: 24.2 µM

Cc1nc2c(n1CC(C)(C)C)C(=O)c1ccccc1C2=O
TGI [1]: > 100 µM
TGI [2]: > 100 µM
TGI [3]: > 100 µM
TGI [4]: > 100 µM
TGI [6]: > 100 µM
TGI [8]: > 100 µM

C[C@]12CC[C@@H]3c4ccc(O)c([N+](=O)[O-])c4CC[C@H]3[C@@H]1CC[C@@H]2NS(=O)(=O)c1ccc(C(F)(F)F)cc1
GI50 [1]: 1.72 µM
TGI [1]: 3.28 µM
GI50 [2]: 1.6 µM
TGI [2]: 3.1 µM
GI50 [3]: 1.84 µM
TGI [3]: 4.1 µM
GI50 [4]: 1.99 µM
TGI [4]: 5.41 µM
GI50 [5]: 1.57 µM
TGI [5]: 3.03 µM
GI50 [6]: 1.83 µM
TGI [6]: 3.58 µM
GI50 [7]: 2.14 µM
TGI [7]: 6.56 µM
GI50 [8]: 2.12 µM
TGI [8]: 4.68 µM

CC(O)CNC1=CC(=O)C(=O)c2ccccc21 (stereo not drawn)
TGI [1]: 15 µM
TGI [2]: 34.9 µM
TGI [3]: 39.1 µM
TGI [4]: 17.7 µM
TGI [6]: 32.4 µM
TGI [7]: 61.8 µM
TGI [8]: 33.8 µM

Cc1cccc(NC(=O)c2sc3nc4c(cc3c2N)CCCC4)c1C
GI50 [1]: 0.399 µM
TGI [1]: > 100 µM
GI50 [2]: 0.61 µM
TGI [2]: > 100 µM
GI50 [3]: 0.519 µM
TGI [3]: > 100 µM
GI50 [4]: 0.614 µM
TGI [4]: > 100 µM
GI50 [5]: 2.51 µM
TGI [5]: > 100 µM
GI50 [6]: 0.537 µM
TGI [6]: > 100 µM
GI50 [7]: 0.351 µM
TGI [7]: > 100 µM
GI50 [8]: 0.547 µM
TGI [8]: > 100 µM
